Data taken from PMC7719384 (Clinical and Translational Science, 2020).
Read-outs that look alike come from different tables or passages of the source.

Experiments:
BCRP [1] = target: T1, BCRP (Homo sapiens, UniProt Q9UNQ0); assay type: biochemical
T1 sequence (Q9UNQ0 1-655): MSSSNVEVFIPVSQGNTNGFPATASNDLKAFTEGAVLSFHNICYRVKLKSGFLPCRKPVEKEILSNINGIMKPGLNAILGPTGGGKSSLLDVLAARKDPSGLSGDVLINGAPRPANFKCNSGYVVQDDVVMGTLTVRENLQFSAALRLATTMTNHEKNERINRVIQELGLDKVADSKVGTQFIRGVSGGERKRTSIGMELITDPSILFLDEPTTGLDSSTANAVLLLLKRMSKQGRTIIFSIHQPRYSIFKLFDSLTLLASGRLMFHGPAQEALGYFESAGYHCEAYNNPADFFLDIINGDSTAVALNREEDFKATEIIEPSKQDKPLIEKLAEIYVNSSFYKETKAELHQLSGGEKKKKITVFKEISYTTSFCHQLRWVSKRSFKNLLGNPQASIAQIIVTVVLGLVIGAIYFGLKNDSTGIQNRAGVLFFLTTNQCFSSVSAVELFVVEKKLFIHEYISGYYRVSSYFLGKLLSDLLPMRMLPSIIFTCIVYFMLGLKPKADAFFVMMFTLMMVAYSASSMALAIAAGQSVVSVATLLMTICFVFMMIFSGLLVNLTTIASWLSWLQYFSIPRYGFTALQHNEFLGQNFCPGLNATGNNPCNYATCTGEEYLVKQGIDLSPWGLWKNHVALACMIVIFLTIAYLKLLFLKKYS

[2] = assay type: in vivo, human; settings: rosuvastatin 10 mg; for AUC(0-inf) / half-life: plasma; for AUC(0-inf): AUC0–∞; for half-life: t ½
[3] = Pharmacokinetics of allopurinol and febuxostat in healthy volunteers; assay type: in vivo, human; settings: for variation of AUC0–24 between individual participants / variation of Cmax between individual participants: 300 mg allopurinol or 120 mg febuxostat once daily
BCRP [4] = settings: in vitro; cited from earlier work
[5] = cited from earlier work
OATP1B1 = settings: in vitro; cited from earlier work
OATP1B3 = settings: in vitro; cited from earlier work
OATP2B1 = settings: in vitro; cited from earlier work
[6] = tested on: breast cancer resistance protein (BCRP; encoded by ABCG2); settings: in vitro; cited from earlier work
[7] = mice; cited from earlier work
CYP2C8 = settings: in vitro; cited from earlier work
CYP2D6 = settings: in vitro; cited from earlier work
CYP1A2 = settings: in vitro; cited from earlier work
CYP2C9 = settings: in vitro; cited from earlier work
CYP2C19 = settings: in vitro; cited from earlier work
CYP3A4 = settings: in vitro; cited from earlier work
[8] = in vivo in humans; cited from earlier work
[9] = in vivo in humans; cited from earlier work; remark: listed apart in the source
[10] = patients with established cardiovascular disease; cited from earlier work
[11] = cited from earlier work; remark: listed apart in the source
[12] = in vivo in humans; cited from earlier work; remark: listed apart in the source
[13] = 120 mg febuxostat once daily vs placebo
[14] = human, oral, allopurinol phase (300 mg once daily days 1–7), geometric mean (geometric CV)
[15] = human, oral, febuxostat phase (120 mg once daily days 4–7), geometric mean (geometric CV)

With `Oc1ncnc2[nH]ncc12` [allopurinol] the IC50 (BCRP [1]) was over 200000 nM, the “effect on the pharmacokinetics of rosuvastatin” value ([2]; 300 mg allopurinol once daily for 7 days vs placebo) was “no statistically significant effect” and the “variation of AUC0–24 between individual participants” value [3] was 4.7 fold. The “variation of Cmax between individual participants” value [3] was 1.8 fold, the AUC(0-t) ([3]; human, plasma, oral, 300 mg) was 5700 ng·h/mL and the Cmax ([3]; human, plasma, oral, 300 mg) was 2000 ng/mL. For the same compound, the “inhibition of BCRP” value (BCRP [4]) was “have not inhibited”.
In the case of `CC1=NN(c2ccc(C)c(C)c2)C(=O)/C1=N\Nc1cccc(-c2cccc(C(=O)O)c2)c1O` [eltrombopag], the “increase of rosuvastatin AUC” value [5] is listed as 1.6 fold, the “inhibition of OATP1B1” value (OATP1B1) is listed as “inhibits” and the “inhibition of OATP1B3” value (OATP1B3) is listed as “inhibits”. The “inhibition of OATP2B1” value (OATP2B1) was “inhibits”.
For `Cc1nc(-c2ccc(OCC(C)C)c(C#N)c2)sc1C(=O)O` [febuxostat], the IC50 (BCRP [1]) was 350 nM, the “effect on Clrenal of rosuvastatin” value [2, 13] was “remained unaffected” and the “effect on t ½ of rosuvastatin” value [2, 13] was “remained unaffected”. The “variation of AUC0–24 between individual participants” value [3] was 3.0 fold, the “variation of Cmax between individual participants” value [3] was 5.0 fold and the “increase of AUC0–24 in individuals homozygous for SLCO1B1 c.521T>C” value ([3]; compared with the noncarriers and one heterozygote, data not shown, preliminary finding) was 1.8 fold. The AUC(0-t) ([3]; human, plasma, oral, 120 mg) was 12300 ng·h/mL, the Cmax ([3]; human, plasma, oral, 120 mg) was 4300 ng/mL and the half-life ([3]; human, plasma, oral, 120 mg) was 6 h. For the same compound, the “inhibition of BCRP mediated transport of urate” value [6] was “strongly inhibit”, the “exposure to the BCRP substrate sulfasalazine” value [7] was “markedly increase” and the “inhibition of CYP2C8” value (CYP2C8) was “weak inhibitor”. The “inhibition of CYP2D6” value (CYP2D6) was “weak inhibitor”, the “inhibition of CYP1A2” value (CYP1A2) was “does not inhibit” and the “inhibition of CYP2C9” value (CYP2C9) was “does not inhibit”. For the same compound, the “inhibition of CYP2C19” value (CYP2C19) was “does not inhibit”, the “inhibition of CYP3A4” value (CYP3A4) was “does not inhibit” and the “effect on the pharmacokinetics of rosiglitazone” value [8] was “no effect”. The “increase of the AUC of desipramine” value [9] was 12% and the “all-cause and cardiovascular mortality compared with allopurinol” value [10] was “increases”.
For `O=c1[nH]c(=O)c2c[nH]nc2[nH]1` [oxypurinol], the “inhibition of BCRP” value (BCRP [4]) is listed as “have not inhibited”.
For `O=C(O)C[C@H](O)C[C@H](O)/C=C/c1c(C2CC2)nc2ccccc2c1-c1ccc(F)cc1` [pitavastatin], the “effect of the ABCG2 c.421C>A variant on AUC” value (“effect … on AUC” for short) [11] is listed as “no significant effect”.
For `CC[C@H](C)C(=O)O[C@H]1C[C@H](O)C=C2C=C[C@H](C)[C@H](CC[C@@H](O)C[C@@H](O)CC(=O)O)[C@H]21` [pravastatin], the “effect … on AUC” value [11] is listed as “no significant effect”.
With `CC(C)c1nc(N(C)S(C)(=O)=O)nc(-c2ccc(F)cc2)c1/C=C/[C@@H](O)C[C@@H](O)CC(=O)O` [rosuvastatin] the CL renal ([2]; human, plasma and urine, oral, Clrenal, allopurinol phase (300 mg once daily days 1–7), geometric mean (geometric CV)) was 225 mL/min, the AUC(0-inf) [2, 14] was 53.5 ng·h/mL and the AUC(0-inf) [2, 15] was 82.5 ng·h/mL. For the same compound, the half-life [2, 14] was 10.9 h, the half-life [2, 15] was 6.3 h and the “Ae, amount excreted into urine” value ([2]; allopurinol phase (300 mg once daily days 1–7), geometric mean (geometric CV)) was 0.45 (101%) mg. For the same compound, the “AUC0–∞, allopurinol phase to placebo phase ratio (90% CI)” value ([2]; geometric mean ratio) was 1.26 (0.98–1.61); P = 0.13, the “AUC0–∞, febuxostat phase to placebo phase ratio (90% CI)” value ([2]; geometric mean ratio) was 1.93 (1.51–2.48); P = 0.001 and the “Ae, allopurinol phase to placebo phase ratio (90% CI)” value ([2]; geometric mean ratio) was 0.99 (0.69–1.43); P = 0.98. The “Ae, febuxostat phase to placebo phase ratio (90% CI)” value ([2]; geometric mean ratio) was 1.76 (1.16–2.66); P = 0.03, the “Clrenal, allopurinol phase to placebo phase ratio (90% CI)” value ([2]; geometric mean ratio) was 0.86 (0.65–1.14); P = 0.36 and the “Clrenal, febuxostat phase to placebo phase ratio (90% CI)” value ([2]; geometric mean ratio) was 0.82 (0.58–1.14); P = 0.30. For the same compound, the “Cmax, allopurinol phase to placebo phase ratio (90% CI)” value ([2]; geometric mean ratio) was 1.22 (1.02–1.47); P = 0.08, the “Cmax, febuxostat phase to placebo phase ratio (90% CI)” value ([2]; geometric mean ratio) was 2.13 (1.76–2.58); P = 5 × 10^−5 and the “t ½, allopurinol phase to placebo phase ratio (90% CI)” value ([2]; geometric mean ratio) was 1.72 (1.03–2.85); P = 0.08. The “t ½, febuxostat phase to placebo phase ratio (90% CI)” value ([2]; geometric mean ratio) was 1.00 (0.75–1.33); P = 0.99, the “increase of AUC by homozygosity for SLCO1B1 c.521T>C” value [12] was 1.7–2.2 fold and the “increase of Cmax by homozygosity for SLCO1B1 c.521T>C” value [12] was 1.8–2.7 fold.
For `CCC(C)(C)C(=O)O[C@H]1C[C@@H](C)C=C2C=C[C@H](C)[C@H](CC[C@@H](O)C[C@@H](O)CC(=O)O)[C@H]21` [simvastatin acid], the “effect … on AUC” value [11] is given as “no significant effect”.
